Common to all, as to assay: NCI-60 cell line screen, 48 h
Assay [1] concerns HCC-2998 colon.
The test system of assay [2] is RXF 393 renal.
For assay [3], the system named is BT-549 breast.
Assay [4] concerns HOP-92 NSCLC.
Assay [5] has as its system SK-MEL-28 melanoma.
The subject of assay [6] is MOLT-4 leukemia.
Assay [7] deals with SF-539 CNS.
Assay [8] has as its system HS 578T breast.
Assay [9] has as its system NCI-H522 lung.
Assay [10] has as its system KM12 colon.

Where “and” joins values, the source holds several entries; their conditions need not be identical. Equal values may be shown once.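 Assay format: 96-well plates, 48-hour exposure. The concentration for 50% growth inhibition is given as GI50. TGI: total growth inhibition.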

In PubChem BioAssay (NCI) one finds GI50 and TGI data, which are given here for five molecules.

Take `Cc1c2ncccc2nc2[nH]c3ccc(OCCN(C)C)cc3c12`: the GI50 in [1] is 1.64 µM; in assay [2], 2.89 µM; in assay [3], 7.46 µM; in assay [4], 1.99 µM; in [5] it was 4.4 µM; in [6], 0.6 µM. Besides, the GI50 is 2.58 µM in assay [7], 3.77 µM in assay [8], 2.41 µM in [9] and 1.93 µM in assay [10]. In addition, the TGI was found to be 14.6 µM in [1]; 9.92 µM in assay [2]; 29.7 µM in [3]; 9.59 µM in assay [4]; 19.1 µM in assay [5]; 12.5 µM in [6]. The TGI in assay [7] stood at 13.9 µM; in assay [8] it was 33.7 µM; in [9], 15.9 µM; in assay [10], 13.6 µM.

For the molecule `CCCCCCCCCCCCOC1C(C(COC2OC(C(O)CN3CCCCC3)C3OC(C)(C)OC23)NC(=O)Nc2ccccc2)OC2OC(C)(C)OC21` (centres undefined), the GI50 in assay [1] was 4.61 µM; in assay [2], 6.03 µM; in assay [3], 14.9 µM; in assay [4], 6.86 µM; in assay [5] it was 7.89 µM; in assay [6] it was 1.29 µM. Besides, the GI50 in [7] is 16.6 µM; in assay [8], 8.75 µM; in assay [9], 17.5 µM; in [10], 7.06 µM. Besides, the TGI in [1] worked out at 9.97 µM; in assay [2], 26.1 µM; in assay [3], 29.5 µM; in assay [4], 19.7 µM; in [5], 15.3 µM; in assay [6], 5.54 µM. Moreover, the TGI was found to be 31.4 µM in assay [7], 23.6 µM in assay [8], 48 µM in assay [9] and 18.7 µM in [10].

For `CC1CCC2C(C)C3C(CC4C5CC=C6CC(OC7OC(CO)C(O)C(OC8OC(CO)C(O)C(O)C8O)C7OC7OC(C)C(O)C(O)C7O)CCC6(C)C5CCC43C)N2C1` (centres undefined), the GI50 in [1], in assay [2], in assay [3], in assay [4], in assay [5] and in assay [6] was greater than 2.5 µg/mL each time. Also, the GI50 in assay [8], in assay [9] and in [10] was greater than 2.5 µg/mL each time. Further, the TGI was 35 µM and > 2.5 µg/mL in [1]; 22.3 µM and > 2.5 µg/mL in [2]; 31.9 µM and > 2.5 µg/mL in assay [3]; 33.6 µM and > 2.5 µg/mL in assay [4]; 21.8 µM and > 2.5 µg/mL in assay [5]; 60.9 µM and > 2.5 µg/mL in assay [6]. The TGI in assay [7] is 23.8 µM; in [8], 32.6 µM and > 2.5 µg/mL; in [9], 35.2 µM and > 2.5 µg/mL; in assay [10], 28.3 µM and > 2.5 µg/mL.

Take `O=C(NCCN1CCOCC1)Nc1ccc(-c2cc3c(Nc4ccc(Oc5cccc(C(F)(F)F)c5)c(Cl)c4)ncnc3s2)cc1`: the GI50 in assay [1] is 1.19 µM; in assay [2], 0.653 µM; in assay [3] it was 2.32 µM; in assay [4], 1.66 µM; in [5], 0.809 µM; in [6], 1.22 µM. Further, the GI50 in assay [7] was 0.825 µM; in assay [8] it was 1.16 µM; in [9] it was 0.91 µM; in assay [10], 1.02 µM. For the same molecule, the TGI was found to be 3.77 µM in assay [1]; 2.55 µM in assay [2]; 11.1 µM in [3]; 7.43 µM in assay [4]; 1.6 µM in [5]; 3.75 µM in [6]. Moreover, the TGI in assay [7] was found to be 2.01 µM; in assay [8], 3.84 µM; in assay [9], 2.26 µM; in [10], 2.12 µM.

For `Oc1ccc(Br)cc1/C=N/NC(=S)NC12CC3CC(CC(C3)C1)C2`, the GI50 in assay [1] is 1.95 µM; in [2], 1.52 µM; in assay [3], 4.36 µM; in assay [4], 2.35 µM; in assay [5], 2.66 µM; in assay [6], 1.89 µM. Also, the GI50 was 3.19 µM in assay [7], 1.99 µM in assay [8], 4.78 µM in [9] and 1.8 µM in [10]. Also, the TGI in [1] stood at 4.6 µM; in assay [2] it was 3.36 µM; in [3] it was 15.7 µM; in assay [4], 6.58 µM; in [5] it was 10.1 µM; in assay [6], 6.81 µM. Further, the TGI was determined as 11.3 µM in assay [7], 6.69 µM in assay [8], 16.1 µM in [9] and 4.35 µM in assay [10].
